#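 Following 48 hours of exposure in 96-well plates, responses at five concentrations were used to interpolate endpoints linearly. Definition used: TGI = concentration required for complete inhibition of growth.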
# Experiments:
# Experiment in all cases: NCI anticancer screen, dose series, 48 h
# MDA-MB-231 breast = test system: MDA-MB-231 breast
# T-47D breast = test system: T-47D breast
# HS 578T breast = test system: HS 578T breast
# RXF 393 renal = test system: RXF 393 renal
# M14 melanoma = test system: M14 melanoma
# SR leukemia = test system: SR leukemia
# ACHN renal = test system: ACHN renal
# SF-539 CNS = test system: SF-539 CNS
# UACC-62 melanoma = test system: UACC-62 melanoma
# MCF7 breast = test system: MCF7 breast
# SW-620 colon = test system: SW-620 colon
# SNB-75 CNS = test system: SNB-75 CNS
# HL-60(TB) leukemia = test system: HL-60(TB) leukemia
smiles,measurement,setting,value
O=C(C/C(=N/O)C(F)(F)F)c1cccs1,TGI,MDA-MB-231 breast,> 100 µM
same,TGI,T-47D breast,> 100 µM
same,TGI,HS 578T breast,> 100 µM
same,TGI,RXF 393 renal,> 100 µM
same,TGI,M14 melanoma,> 100 µM
same,TGI,SR leukemia,> 100 µM
same,TGI,ACHN renal,> 100 µM
same,TGI,SF-539 CNS,> 100 µM
same,TGI,UACC-62 melanoma,> 100 µM
same,TGI,MCF7 breast,> 100 µM
same,TGI,SW-620 colon,> 100 µM
same,TGI,SNB-75 CNS,> 100 µM
same,TGI,HL-60(TB) leukemia,> 100 µM
CCN(CC)c1ccc(/C=C2\CCc3ccc([N+](=O)[O-])cc3C2=O)cc1,TGI,MDA-MB-231 breast,> 100 µM
same,TGI,T-47D breast,> 100 µM
same,TGI,HS 578T breast,> 100 µM
same,TGI,RXF 393 renal,> 29.9 µM
same,TGI,M14 melanoma,> 100 µM
same,TGI,SR leukemia,> 100 µM
same,TGI,ACHN renal,> 100 µM
same,TGI,SF-539 CNS,7.09 µM
same,TGI,UACC-62 melanoma,> 100 µM
same,TGI,MCF7 breast,> 100 µM
same,TGI,SW-620 colon,> 100 µM
same,TGI,SNB-75 CNS,24.3 µM
same,TGI,HL-60(TB) leukemia,5.33 µM
O=c1c2cnccc2cc2c3ccccc3ccn12,TGI,MDA-MB-231 breast,> 100 µM
same,TGI,T-47D breast,> 100 µM
same,TGI,HS 578T breast,> 100 µM
same,TGI,RXF 393 renal,> 100 µM
same,TGI,M14 melanoma,> 100 µM
same,TGI,SR leukemia,> 100 µM
same,TGI,ACHN renal,> 100 µM
same,TGI,SF-539 CNS,> 100 µM
same,TGI,UACC-62 melanoma,> 100 µM
same,TGI,MCF7 breast,> 100 µM
same,TGI,SW-620 colon,> 100 µM
same,TGI,SNB-75 CNS,> 100 µM
same,TGI,HL-60(TB) leukemia,> 100 µM
CCOC1NC(=O)Oc2cc3ccccc3cc21 (configuration not stated),TGI,MDA-MB-231 breast,> 100 µM
same,TGI,T-47D breast,> 100 µM
same,TGI,HS 578T breast,> 100 µM
same,TGI,RXF 393 renal,> 100 µM
same,TGI,M14 melanoma,> 100 µM
same,TGI,SR leukemia,> 100 µM
same,TGI,ACHN renal,> 100 µM
same,TGI,SF-539 CNS,> 100 µM
same,TGI,UACC-62 melanoma,> 100 µM
same,TGI,MCF7 breast,> 100 µM
same,TGI,SW-620 colon,> 100 µM
same,TGI,SNB-75 CNS,> 100 µM
same,TGI,HL-60(TB) leukemia,> 100 µM
O=C(OC1CN2CCC1CC2)N(c1ccccc1)c1ccccc1 (configuration not stated),TGI,MDA-MB-231 breast,> 100 µM
same,TGI,T-47D breast,> 100 µM
same,TGI,HS 578T breast,> 100 µM
same,TGI,RXF 393 renal,> 100 µM
same,TGI,M14 melanoma,> 100 µM
same,TGI,SR leukemia,> 100 µM
same,TGI,ACHN renal,> 100 µM
same,TGI,SF-539 CNS,> 100 µM
same,TGI,UACC-62 melanoma,> 100 µM
same,TGI,MCF7 breast,> 100 µM
same,TGI,SNB-75 CNS,> 100 µM
same,TGI,HL-60(TB) leukemia,> 100 µM
Cc1ccc(-c2cc[n+]3c(n2)oc2ccccc23)cc1,TGI,MDA-MB-231 breast,> 100 µM
same,TGI,T-47D breast,> 100 µM
same,TGI,HS 578T breast,81.5 µM
same,TGI,M14 melanoma,84.5 µM
same,TGI,SR leukemia,47 µM
same,TGI,ACHN renal,99.4 µM
same,TGI,SF-539 CNS,58.6 µM
same,TGI,UACC-62 melanoma,97.7 µM
same,TGI,MCF7 breast,> 100 µM
same,TGI,SW-620 colon,> 100 µM
same,TGI,SNB-75 CNS,65.3 µM
same,TGI,HL-60(TB) leukemia,44.2 µM
COc1cc(Cc2cnc(N)nc2N)cc(OC)c1OCCCNc1ccc([N+](=O)[O-])cc1,TGI,MDA-MB-231 breast,27.5 µM
same,TGI,T-47D breast,25.3 µM
same,TGI,HS 578T breast,> 100 µM
same,TGI,RXF 393 renal,25.2 µM
same,TGI,M14 melanoma,19.2 µM
same,TGI,SR leukemia,24.3 µM
same,TGI,ACHN renal,37.8 µM
same,TGI,SF-539 CNS,26.1 µM
same,TGI,UACC-62 melanoma,26.7 µM
same,TGI,MCF7 breast,26.5 µM
same,TGI,SW-620 colon,34.2 µM
same,TGI,SNB-75 CNS,32.7 µM
CC1(C)C2CCC1C(=O)[C@@]1(C=CC(=O)CC1)C2 (some centres not stated),TGI,MDA-MB-231 breast,> 100 µM
same,TGI,T-47D breast,> 100 µM
same,TGI,HS 578T breast,> 100 µM
same,TGI,RXF 393 renal,> 100 µM
same,TGI,M14 melanoma,> 100 µM
same,TGI,SR leukemia,> 100 µM
same,TGI,ACHN renal,> 100 µM
same,TGI,SF-539 CNS,> 100 µM
same,TGI,UACC-62 melanoma,> 100 µM
same,TGI,MCF7 breast,> 100 µM
same,TGI,SW-620 colon,> 100 µM
same,TGI,SNB-75 CNS,> 100 µM
same,TGI,HL-60(TB) leukemia,> 100 µM
C=CCOC(=O)N1c2ccc(O)cc2[C@@]23O[C@@]24[C@@H]1C#C/C=C\C#C[C@]3(O)C(OC)(OC)C[C@@H]4C,TGI,MDA-MB-231 breast,52.8 µM
same,TGI,T-47D breast,> 100 µM
same,TGI,HS 578T breast,90.9 µM
same,TGI,RXF 393 renal,> 100 µM
same,TGI,M14 melanoma,79.9 µM
same,TGI,SR leukemia,62.2 µM
same,TGI,ACHN renal,72.3 µM
same,TGI,SF-539 CNS,40.6 µM
same,TGI,UACC-62 melanoma,> 100 µM
same,TGI,MCF7 breast,98.2 µM
same,TGI,SW-620 colon,> 100 µM
same,TGI,SNB-75 CNS,45.9 µM
same,TGI,HL-60(TB) leukemia,72 µM
Cn1c2ccccc2c2cc(N3CCCC3)c3c(c21)C(=O)N(c1ccccc1)C3=O,TGI,MDA-MB-231 breast,> 100 µM
same,TGI,T-47D breast,> 100 µM
same,TGI,HS 578T breast,> 100 µM
same,TGI,RXF 393 renal,91.2 µM
same,TGI,M14 melanoma,> 100 µM
same,TGI,SR leukemia,> 100 µM
same,TGI,ACHN renal,> 100 µM
same,TGI,UACC-62 melanoma,> 100 µM
same,TGI,MCF7 breast,> 100 µM
same,TGI,SW-620 colon,> 100 µM
same,TGI,SNB-75 CNS,> 100 µM
same,TGI,HL-60(TB) leukemia,> 100 µM
Cc1cc2n[n+]3[n-]cc(-c4ccccc4)n3c2cc1[N+](=O)[O-],TGI,MDA-MB-231 breast,> 100 µM
same,TGI,T-47D breast,> 100 µM
same,TGI,HS 578T breast,> 100 µM
same,TGI,RXF 393 renal,> 100 µM
same,TGI,SR leukemia,> 100 µM
same,TGI,ACHN renal,> 100 µM
same,TGI,SF-539 CNS,> 100 µM
same,TGI,UACC-62 melanoma,> 100 µM
same,TGI,MCF7 breast,> 100 µM
same,TGI,SW-620 colon,> 100 µM
same,TGI,SNB-75 CNS,> 100 µM
same,TGI,HL-60(TB) leukemia,> 100 µM
O=C(N/N=C\c1cccc2ccccc12)Nc1cccc2ccccc12,TGI,MDA-MB-231 breast,45.8 µM
same,TGI,T-47D breast,> 100 µM
same,TGI,HS 578T breast,> 100 µM
same,TGI,RXF 393 renal,43.4 µM
same,TGI,M14 melanoma,> 100 µM
same,TGI,SR leukemia,13.6 µM
same,TGI,ACHN renal,> 100 µM
same,TGI,SF-539 CNS,42.1 µM
same,TGI,MCF7 breast,> 100 µM
same,TGI,SW-620 colon,> 100 µM
same,TGI,SNB-75 CNS,35.2 µM
same,TGI,HL-60(TB) leukemia,60.8 µM
CC(=O)O[C@H]1C(=O)[C@@]2(C)[C@H]([C@H](OC(=O)c3ccccc3)[C@]3(O)C[C@H](OC(=O)[C@H](O)[C@@H](NC(=O)c4ccccc4)c4cccc(N(C)C)c4)C(C)=C1C3(C)C)[C@]1(OC(C)=O)CO[C@@H]1C[C@@H]2O,TGI,MDA-MB-231 breast,36.1 µM
same,TGI,T-47D breast,30.7 µM
same,TGI,HS 578T breast,0.603 µM
same,TGI,RXF 393 renal,1.24 µM
same,TGI,SR leukemia,9.71 µM
same,TGI,ACHN renal,> 16.4 µM
same,TGI,SF-539 CNS,1.08 µM
same,TGI,UACC-62 melanoma,> 50.2 µM
same,TGI,MCF7 breast,> 55.2 µM
same,TGI,SW-620 colon,> 75 µM
same,TGI,SNB-75 CNS,> 36.1 µM
same,TGI,HL-60(TB) leukemia,0.0414 µM
